Among the data in patent publication US20060004029A1, “Nitrogen-containing aromatic derivatives” (priority 2003, published 2006) are IC50 values, retold here.

pIC50: −log10 of the molar value.

The target of one test is T1, VEGFR2 (Homo sapiens, UniProt P35968).
T1 construct: coding for the cytoplasmic domain, beginning with lysine 791 and including the termination codon; made in house; host or cells: Sf9 insect cells, baculovirus (pFastBacHis)
Briefly: Inhibition against receptor tyrosine kinase activity (HTRF), VEGFR2. The format is biochemical. Particulars: His6-VEGFR2 cytoplasmic domain, biotin-poly(GT), HTRF; read-out: VEGFR2 kinase IC50. The protocol: This assay is used to determine inhibition of a test substance on tyrosine kinase activity. […] Expression in an appropriate expression system can produce a polypeptide with tyrosine kinase activity. […] The recombinant construct was transfected into insect cells (Spondoptea frugiperda9 (Sf9)) to prepare a recombinant Baculovirus.
For expression of the VEGFR2 tyrosine kinase, Sf9 cells were infected with the VEGFR2 recombinant virus and collected after 48 hours. The collected cells were rinsed with ice-cooled phosphate buffered saline (PBS) and then resuspended using 20 ml of ice-cooled Lysis Buffer (50 mM Tris-HCl (pH 8.5), 5 mM 2-mercaptoethanol, 100 mM KCl, 1 mM phenylmethylsulfonyl fluoride, 1% (v/v) NP-40) per 1.5×10^8 cells. The suspension was centrifuged at 12,000 rpm for 30 minutes at 4° C. and the supernatant was obtained. The supernatant was added to a Ni-NTA agarose column (3 ml, purchased from Qiagen) equilibrated with Buffer A {20 mM Tris-HCl (pH 8.5), 5 mM 2-mercaptoethanol, 500 mM KCl, 20 mM imidazole, 10% (v/v) glycerol}. The column was washed with 30 ml of Buffer A, and then with 6 ml of Buffer B {20 mM Tris-HCl (pH 8.5), 5 mM 2-mercaptoethanol, 1M KCl, 10% (v/v) glycerol}, and finally with 6 ml of Buffer A. After washing, it was eluted with 6 ml of Buffer C {20 mM Tris-HCl (pH 8.5), 5 mM 2-mercaptoethanol, 100 mM KCl, 100 mM imidazole, 10% (v/v) glycerol}. The eluate was placed on a dialysis membrane (purchased from Spectrum Laboratories) and dialyzed with a dialysis buffer {20 mM Tris-HCl (pH 7.5), 10% (v/v) glycerol, 1 mM dithiothreitol, 0.1 mM Na3VO4, 0.1 mM EGTA}. […] Using the same method for the cytoplasmic domains of FGFR1, PDGFRβ and HGFR yielded respective recombinant proteins fused with 6 histidine residues at the N-terminal (His6-FGFR1, His6-PDGFRβ or His6-HGFR).
The tyrosine kinase reaction was conducted as follows. […] Next, 10 μl of 4 μM ATP (diluted with distilled water) was added prior to incubation at 30° C. for 10 minutes, and then 10 μl of 500 mM EDTA (pH 8.0) was added.
The tyrosine phosphorylation rate for the biotin-poly(GT) was expressed as the delta F % value as described in the HTRF Standard Experiment Methods text by CIS Diagnostics Co. The delta F % value in the presence of the test substance was determined as a ratio (%) with the delta F % value with addition of His6-VEGFR2 in the absence of the test substance defined as 100% and the delta F % value in the absence of both the test substance and His6-VEGFR2 defined as 0%.

A further test addresses T2, FGFR1 (Homo sapiens, UniProt P11362).
T2 construct: made in house; host or cells: Sf9 insect cells, baculovirus (pFastBacHis), by the same method as VEGFR2
Briefly: Inhibition against receptor tyrosine kinase activity (HTRF), FGFR1. Format: biochemical. Particulars: His6-FGFR1 cytoplasmic domain, biotin-poly(GT), HTRF; read-out: FGFR1 kinase IC50. From the text:
This assay is used to determine inhibition of a test substance on tyrosine kinase activity. DNA coding for the cytoplasmic domain of VEGFR2 is obtained by total cDNA synthesis (Edwards M, International Biotechnology Lab 5(3), 19-25, 1987) or by cloning. Expression in an appropriate expression system can produce a polypeptide with tyrosine kinase activity. […] For VEGFR2 (GenBank Accession No. L04947), the 1.7 kb DNA fragment described by Terman et al. (Oncogene, 6(9), 1677-1683, 1991), coding for the cytoplasmic domain, beginning with lysine 791 and including the termination codon, was isolated from a human placental cDNA library (purchased from Clontech Laboratories, Inc.) and cloned in a Baculovirus expression vector (pFastBacHis, purchased from GIBCO BRL). The recombinant construct was transfected into insect cells (Spondoptea frugiperda9 (Sf9)) to prepare a recombinant Baculovirus. (Instructions for preparation and use of recombinant Baculovirus may be found in standard texts, such as “Bac-To-Bac Baculovirus Expression System” (GIBCO BRL).) The cytoplasmic fragment starting from lysine 398 (FGFR1, GenBank Accession No. X52833), the cytoplasmic fragment starting from lysine 558 (PDGFRβ, GenBank Accession No. M21616) or the cytoplasmic fragment starting from lysine 974 (HGFR, GenBank Accession No. J02958) may be cloned and expressed by the same method for use in assays for other tyrosine kinases. EGFR was purchased from Sigma Co. (Product No. E-2645).
For expression of the VEGFR2 tyrosine kinase, Sf9 cells were infected with the VEGFR2 recombinant virus and collected after 48 hours. The collected cells were rinsed with ice-cooled phosphate buffered saline (PBS) and then resuspended using 20 ml of ice-cooled Lysis Buffer (50 mM Tris-HCl (pH 8.5), 5 mM 2-mercaptoethanol, 100 mM KCl, 1 mM phenylmethylsulfonyl fluoride, 1% (v/v) NP-40) per 1.5×10^8 cells. The suspension was centrifuged at 12,000 rpm for 30 minutes at 4° C. and the supernatant was obtained. The supernatant was added to a Ni-NTA agarose column (3 ml, purchased from Qiagen) equilibrated with Buffer A {20 mM Tris-HCl (pH 8.5), 5 mM 2-mercaptoethanol, 500 mM KCl, 20 mM imidazole, 10% (v/v) glycerol}. The column was washed with 30 ml of Buffer A, and then with 6 ml of Buffer B {20 mM Tris-HCl (pH 8.5), 5 mM 2-mercaptoethanol, 1M KCl, 10% (v/v) glycerol}, and finally with 6 ml of Buffer A. After washing, it was eluted with 6 ml of Buffer C {20 mM Tris-HCl (pH 8.5), 5 mM 2-mercaptoethanol, 100 mM KCl, 100 mM imidazole, 10% (v/v) glycerol}. The eluate was placed on a dialysis membrane (purchased from Spectrum Laboratories) and dialyzed with a dialysis buffer {20 mM Tris-HCl (pH 7.5), 10% (v/v) glycerol, 1 mM dithiothreitol, 0.1 mM Na3VO4, 0.1 mM EGTA}. After dialysis, it was supplied for SDS-electrophoresis, and the recombinant protein (His6-VEGFR2, cytoplasmic domain of VEGFR2 fused with 6 histidine residues at the N-terminus) detected at a molecular weight of approximately 100 kDa with Coumassie Brilliant Blue staining was assayed using BSA (bovine serum albumin, purchased from Sigma Co.) as the standard substance, and stored at −80° C. until use. Using the same method for the cytoplasmic domains of FGFR1, PDGFRβ and HGFR yielded respective recombinant proteins fused with 6 histidine residues at the N-terminal (His6-FGFR1, His6-PDGFRβ or His6-HGFR).
The tyrosine kinase reaction was conducted as follows. In the case of VEGFR2, for example, 10 μl of a kinase reaction solution {200 mM Hepes (pH 7.4), 80 mM MgCl2, 16 mM MnCl2, 2 mM Na3VO4}, 250 ng of biotin-bound poly(Glu4:Tyr1) (biotin-poly(GT), purchased from CIS Diagnostics Co.) (6 μl of a 15-fold dilution with distilled water), 15 ng of His6-VEGFR2 (10 μl of a 240-fold dilution with 0.4% BSA solution) and the test substance dissolved in dimethyl sulfoxide (4 μl of a 100-fold dilution with 0.1% BSA solution) were added into each well of a 96-well round-bottom plate (NUNC Co., Product No. 163320), to a total of 30 μl. […]

T1 sequence (P35968 786-1356 limits assumed): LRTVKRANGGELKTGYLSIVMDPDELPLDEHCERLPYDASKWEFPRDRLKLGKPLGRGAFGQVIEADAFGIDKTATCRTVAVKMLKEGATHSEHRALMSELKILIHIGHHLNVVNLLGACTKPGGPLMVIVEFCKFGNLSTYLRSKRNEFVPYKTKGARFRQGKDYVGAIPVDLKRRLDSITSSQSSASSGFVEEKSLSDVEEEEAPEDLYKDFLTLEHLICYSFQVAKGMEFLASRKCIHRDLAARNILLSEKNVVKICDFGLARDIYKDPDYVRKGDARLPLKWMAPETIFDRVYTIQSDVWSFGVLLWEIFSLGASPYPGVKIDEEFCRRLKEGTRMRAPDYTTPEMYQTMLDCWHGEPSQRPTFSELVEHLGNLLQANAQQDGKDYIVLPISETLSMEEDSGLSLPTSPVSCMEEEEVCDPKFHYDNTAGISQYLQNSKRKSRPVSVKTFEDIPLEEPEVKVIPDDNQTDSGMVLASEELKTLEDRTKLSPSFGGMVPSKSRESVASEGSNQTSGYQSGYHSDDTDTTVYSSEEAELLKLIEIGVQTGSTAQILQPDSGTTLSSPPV
T2 sequence (P11362 398-822 limits assumed): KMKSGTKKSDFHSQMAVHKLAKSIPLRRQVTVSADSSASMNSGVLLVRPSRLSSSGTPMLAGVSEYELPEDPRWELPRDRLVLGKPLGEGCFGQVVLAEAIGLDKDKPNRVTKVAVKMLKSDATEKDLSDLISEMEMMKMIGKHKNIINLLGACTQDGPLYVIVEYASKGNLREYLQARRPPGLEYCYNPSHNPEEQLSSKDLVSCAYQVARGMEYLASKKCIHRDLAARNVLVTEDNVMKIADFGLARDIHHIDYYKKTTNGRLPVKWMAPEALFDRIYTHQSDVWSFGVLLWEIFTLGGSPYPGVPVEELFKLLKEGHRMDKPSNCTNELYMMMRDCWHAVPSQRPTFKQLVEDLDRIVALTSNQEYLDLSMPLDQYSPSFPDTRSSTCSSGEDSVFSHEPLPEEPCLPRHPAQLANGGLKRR

`CCNC(=O)n1ccc2cc(Oc3ccnc(NC(=O)N4CCCC4)c3)ccc21` [Example 81, N1-Ethyl-5-((2-((pyrrolidin-1-ylcarbonyl)amino)-4-pyridyl)oxy)-1H-1-indolecarboxamide]: the pIC50 is 7.92 at VEGFR2 and 7.42 at FGFR1.
On the same counts, the results for `CCNC(=O)n1ccc2cc(Oc3ccnc(NC(=O)N4CCOCC4)c3)ccc21` [Example 82, N4-(4-((1-(Ethylamino)carbonyl-1H-5-indolyl)oxy)-2-pyridyl)-4-morpholinecarboxamide] are 7.82 and 7.62.
On the same counts, the results for `O=C(Nc1cc(Oc2ccc3c(ccn3C(=O)NC3CC3)c2)ccn1)N1CCCC1` [Example 88, N1-Cyclopropyl-5-(2-((pyrrolidin-1-ylcarbonyl)amino)-4-pyridyl)oxy-1H-1-indolecarboxamide] are 7.85 and 7.62.
The like results for `CNC(=O)n1cc(Cl)c2cc(Oc3ccnc(NC(=O)N4CCC(O)CC4)c3)ccc21` [Example 104, N1-Methyl-3-chloro-5-(2-((4-hydroxypiperidino)carbonyl)amino-4-pyridyl)oxy-1H-1-indolecarboxamide] were, in that order, 8.41 and 7.72.
For `CNC(=O)Nc1cc(Oc2ccc3c(ccn3C(=O)NC)c2)ccn1` [Example 116, N1-Methyl-5-(2-((methylamino)carbonyl)amino-4-pyridyl)oxy-1H-1-indolecarboxamide], the figures for the pIC50 at VEGFR2 and on FGFR1 were 7.85 and 7.06, respectively.
Consider `CCN(CC)C(=O)Nc1cc(Oc2ccc3c(ccn3C(=O)NC)c2)ccn1` [Example 119, N1-Methyl-5-(2-((diethylamino)carbonyl)amino-4-pyridyl)oxy-1H-1-indolecarboxamide], for which the pIC50 at VEGFR2 is 7.68; on FGFR1 it was 6.92.
On the same counts, the results for `C#CCNC(=O)n1ccc2cc(Oc3ccnc(NC(=O)N4CCCC4)c3)ccc21` [Example 139, N1-(2-Propynyl)-5-(2-((pyrrolidin-1-yl)carbonyl)amino-4-pyridyl)oxy-1H-1-indolecarboxamide] are 8.20 and 6.72.
The like results for `CNC(=O)n1ccc2cc(Oc3ccnc(NC(=O)N4CCC4)c3)ccc21` [Example 206, N1-Methyl-5-(2-(azetidin-1-ylcarbonyl)amino-4-pyridyl)oxy-1H-1-indolecarboxamide] were, in that order, 8.39 and 8.46.
On the same counts, the results for `CCNC(=O)n1ccc2cc(Oc3ccnc(NC(=O)N4CCC4)c3)ccc21` [Example 207, N1-Ethyl-5-(2-(azetidin-1-ylcarbonyl)amino-4-pyridyl)oxy-1H-1-indolecarboxamide] are 8.34 and 7.92.
Consider `O=C(Nc1cc(Oc2ccc3c(ccn3C(=O)NC3CC3)c2)ccn1)N1CCC1` [Example 208, N1-Cyclopropyl-5-(2-(azetidin-1-ylcarbonyl)amino-4-pyridyl)oxy-1H-1-indolecarboxamide], for which the pIC50 is 8.11 on VEGFR2 and 8.17 on FGFR1.
Take `CNC(=O)n1ccc2cc(Oc3ccnc(NC(=O)N4CCC(N5CCOCC5)CC4)c3)ccc21` [Example 209, N1-Methyl-5-(2-(((4-(morpholin-4-yl)piperidin-1-yl)carbonyl)amino)pyridin-4-yloxy)-1H-1-indolecarboxamide]: the values for the negative-log IC50 (pIC50) on VEGFR2 and on FGFR1 were 7.77 and 7.54, respectively.
The like results for `CNC(=O)n1ccc2cc(Oc3ccnc(NC(=O)N4CCC(N5CCC5)CC4)c3)ccc21` [Example 210, N1-Methyl-5-(2-(((4-(azetidin-1-yl)piperidin-1-yl)carbonyl)amino)pyridin-4-yloxy)-1H-1-indolecarboxamide] were, in that order, 8.09 and 7.40.
As to `CCN(CC)C1CCN(C(=O)Nc2cc(Oc3ccc4c(ccn4C(=O)NC)c3)ccn2)CC1` [Example 211, N1-Methyl-5-(2-(((4-(diethylamino)piperidin-1-yl)carbonyl)amino)pyridin-4-yloxy)-1H-1-indolecarboxamide], the figures for the negative logarithm of the IC50 (pIC50) on VEGFR2 and on FGFR1 were 7.35 and 7.44, respectively.
Turning to `CNC(=O)n1ccc2cc(Oc3ccnc(NC(=O)N4CCC(N5CCC(O)CC5)CC4)c3)ccc21` [Example 212, N1-Methyl-5-(2-(((4-(4-hydroxypiperidin-1-yl)piperidin-1-yl)carbonyl)amino)pyridin-4-yloxy)-1H-1-indolecarboxamide], the pIC50 at VEGFR2 is 8.07; at FGFR1, 7.72.
On the same counts, the results for `CCCNC(=O)n1ccc2cc(Oc3ccnc(NC(=O)N4CCCC4)c3)ccc21` [Example 213, N1-Propyl-5-(2-(pyrrolidin-1-ylcarbonyl)amino-4-pyridyl)oxy-1H-1-indolecarboxamide] are 8.00 and 6.48.
For “N1-Methyl-5-(2-((4-(2-hydroxy-2-methylpropionyl)piperazin-1-yl)carbonyl)amino-4-pyridyl)oxy-1H-indolecarboxamide [Example 28]”, the negative logarithm of the IC50 (pIC50) is 8.35 at VEGFR2 and 8.39 at FGFR1.
